Where a name gives a salt, the structure may show the parent alone.

Usually IC50 stands for the concentration that inhibits the measured activity by half.

The subject of data set [1] is human leukocytes (basophils). Description: Inhibition of human leukocyte (basophil) histamine release in vitro (rabbit anti-human IgE). In kind it is cell-based. The conditions noted are these: Table A, 60 minutes at 37° C., Int. = interference with test procedure; for IC50: Leukocyte, 1 h, read-out: Inhibition IC50 (histamine release from human leukocytes (basophils)). The protocol: Separation of Leukocytes: A modification of the method of L. Lichtenstein and A. Osler, J.Exp.Med. 120, 507 (1964) was used. Heparinized human blood (80-100 ml) is mixed with 20 ml of saline (0.2%) containing 0.6 gm of dextrose and 1.2 gm dextran in propylene centrifuge tubes. The mixture is kept at ambient temperature for 60-90 minutes to allow the separation of erythrocytes from the platelet-leukocyte-rich supernate. The supernate is removed and centrifuged for 8 minutes at 110×g in cold. The leukocyte pellet is washed 2× with Tris buffer and finally suspended in 150-180 ml Tris-ACM buffer at 1-2×10^6 cells/ml. 2. Reaction Mixture: The reaction is carried out in 12×75 mm plastic tubes at a total volume of 1.25 ml. The reaction medium includes 0.05 ml rabbit anti-human IgE (the antigen), 0.2 ml of the test compound in water at concentrations ranging from 10-1000 μM, and 1.0 ml of the leukocyte suspension. The reaction mixture is incubated in a 37° C. shaking water bath for 60 minutes. Upon completion of the reaction, the tubes are centrifuged and the supernatants collected. The protein is removed from the supernatants by precipitation with 0.2 ml of 8% perchloric acid. 3. Histamine Assay: Histamine release is measured by the automated fluorometric method of W. Siraganian and W. Hook in Chapter 102 of the Manual of Clinical Immunology, 2nd Edition, Edited by R. Rose and H. Friedman, Published by the American Society for Microbiology, Washington, D.C. 1980. Percent inhibition is calculated as follows: [formula] The concentration which causes a 50 percent inhibition (IC50) of histamine release is interpolated from a plot of percent inhibition versus logarithm of drug concentration.

For data set [2], the system named is rat peritoneal mast cells. Description: Inhibition of rat peritoneal mast cell histamine release. In kind it is cell-based. Particulars: Table B, in vitro, sheep anti-rat IgE or ovalbumin, 60 minutes at 37° C., Int. = interference with test procedure; for IC50: Mast cell, 1 h, read-out: Inhibition IC50 (histamine release from rat peritoneal mast cells). The method, then:
Harvest of Peritoneal Mast Cells: After the rats are sacrificed with ether, 20 ml of Minimum Essential Medium (MEM) containing 20 units/ml heparin is injected into the peritoneum. The abdomen is massaged for one minute and the lavage fluid collected. The peritoneal cells are centrifuged at 1800 rpm for 8 minutes in cold. After two washes with Tris A buffer, the cells are resuspended in Tris ACM buffer at 2-33 10^6 cells/ml. 2. Reaction Mixture: The reaction is carried out in 12×75 mm plastic tubes at a total volume of 1.25 ml. The reaction mixture includes 0.5 ml (10-1000 μg) sheep anti-rat IgE or ovalbumin, 0.2 ml of the test compound in water at concentrations ranging from 10-1000 μM, 0.5 ml phosphatidylserine solution (20-60 μg to each tube), and 0.5 ml of cell suspension. The reaction mixture is incubated in a 37° C. shaking water bath for 60 minutes. Upon completion of the reaction, the tubes are centrifuged and the supernatants collected. The protein is removed from the supernatants by precipitation with 0.2 ml of 8% perchloric acid. 3. Histamine Assay: Histamine release is measured by the automated fluorometric method of Siraganian, supra. The concentration which causes a 50% inhibition (IC50) of histamine release is computed as in Part A.

In data set [3] the test system is isolated guinea pig ileum. Description: Antagonism of histamine-induced contraction of isolated guinea pig ileum. In kind it is cell-based. Particulars: Cavia porcellus; Table C; histamine final concentration 0.2 μg/ml; read-out: Inhibition IC50 (histamine-induced contraction of isolated guinea pig ileum). The protocol:
The antagonism of the effects of histamine on the contraction of isolated guinea pig ileum by the compounds of formula I can be determined by the procedure of G. Possanza, A. Bauen, and P. Stewart, Int. Arch. Allergy Appl. Immunol., 49, 289 (1975). The degree of inhibition is determined as the difference between the contraction caused by histamine (final concentration 0.2 μg/ml) alone and that seen in the presence of both histamine and the test compound. The inhibitory activity of the test compound is expressed as that concentration of the compound which causes a 50% reduction of the contractile response (IC50).

The next data set concerns CNS. Kind of data set: Standard mouse neuropharmacological profile. It is filed as in vivo. An excerpt:
With the exception of the compounds wherein R4 is a lower alkyl group from 7 to 12 carbon atoms, the compounds of formula I inhibit in vitro the histamine-induced contraction of isolated guinea pig ileum and are useful in warm-blooded animals for antagonizing the action of histamine at the histamine (H1) receptor. Accordingly, the compounds of formula I can be employed as antihistamine agents for the treatment of allergic disorders, for example allergic rhinitis, vasomotor rhinitis, allergic conjunctivitis, hay fever, urticaria, and food allergies. Certain compounds of formula I lack the CNS side effects, such as sedation, normally associated with antihistamine therapy.

Regarding `O=C(NCCCN1CCN(Cc2ccc(Cl)cc2)CC1)NC1CCCCC1` [Example 1, 1-{3-[4-(4-Chlorobenzyl)piperazin-1-yl]propyl}-3-cyclohexylurea dihydrochloride], the values for the IC50 in data set [1], in data set [2] and in data set [3] were 50 µM, 108 µM and 0.015 µM, respectively.

Consider `CCCCCCNC(=O)NCCCN1CCN(Cc2ccc(Cl)cc2)CC1` [Example 4, 1-{3-[4-(4-Chlorobenzyl)piperazin-1-yl]propyl}-3-n-hexylurea dihydrochloride], for which the values for the concentration for half-maximal inhibition (IC50) in data set [1], in data set [2] and in data set [3] were 8 µM, 110 µM and 0.05 µM, respectively.

Consider `CCCCCCCCNC(=O)NCCCN1CCN(Cc2ccc(Cl)cc2)CC1` [Example 5, 1{3-[4-(4-Chlorobenzyl)piperazin-1-yl]propyl}-3-n-octylurea diihydrochloride], for which the 50% inhibitory concentration (IC50) was found to be 16 µM in data set [1], 210 µM in data set [2] and 0.75 µM in data set [3].

Take `O=C(NCCCN1CCN(Cc2ccc(Cl)cc2)CC1)Nc1ccccc1` [Example 9, 1-{3-[4-(4-Chlorobenzyl)piperazin-1-yl]propyl}-3-phenylurea]: the IC50 in data set [1] was 78 µM; in data set [2], greater than 1000 µM; in data set [3], 0.05 µM.

Take `CCOC(=O)c1ccc(NC(=O)NCCCN2CCN(Cc3ccc(Cl)cc3)CC2)cc1.Cl` [Example 13, 1-{3-[4-(4-Chlorobenzyl)piperazin-1-yl]propyl}-3-(4-ethoxycarbonylphenyl)urea hydrochloride]: the CNS effects entry with CNS was “not to exert significant CNS effects”. Also, the IC50 came out at 190 µM in data set [1] and 0.11 µM in data set [3].

For the compound `Cl.O=C(NCCCN1CCN(Cc2ccc(Cl)cc2)CC1)Nc1ccc(C(=O)O)cc1` [Example 14, 1-{3-[4-(4-Chlorobenzyl)piperazin-1-yl]propyl}-3-(4-carboxyphenyl)urea hydrochloride], in the data set with CNS, the CNS effects result is on record as “not to exert significant CNS effects”. Also, the results for the concentration for half-maximal inhibition (IC50) in data set [1] and in data set [3] were greater than 1000 µM and 0.21 µM, respectively.

`S=C(NCCCN1CCN(Cc2ccc(Cl)cc2)CC1)Nc1ccccc1` [Example 20, 1-{3-[4-(4-Chlorobenzyl)piperazin-1-yl]propyl}-3-phenylthiourea]: the concentration for half-maximal inhibition (IC50) was 37 µM in data set [1] and 0.1 µM in data set [3].

`CCCCCCNC(=S)NCCCN1CCN(Cc2ccc(Cl)cc2)CC1` [Example 21, 1-{3-[4-(4-Chlorobenzyl)piperazin-1-yl]propyl}-3-n-hexylthiourea dihydrochloride hemihydrate]: in data set [1], the “Inhibition IC50 (histamine release from human leukocytes (basophils))” value is given as “Int”. For the same compound, the IC50 in data set [3] came to 0.08 µM.

Turning to `O=C(NCCCN1CCN(Cc2ccc(Cl)cc2)CC1)NCc1ccccc1` [Example 22, 1-{3-[4-(4-Chlorobenzyl)piperazin-1-yl]propyl}-3-benzylurea dihydrochloride], the IC50 in data set [1] came out at 112 µM; in data set [3] it was 0.23 µM.

Turning to `CCCCCCNC(=O)NCCCN1CCN(CCc2ccc(Cl)cc2)CC1` [Example 23, 1-{3-[4-(4-Chlorophenethyl)piperazin-1-yl]propyl}-3-n-hexylurea dihydrochloride], the IC50 in data set [1] worked out at 16 µM; in data set [3] it was 0.02 µM.

In the case of `N#Cc1ccc(NC(=O)NCCCN2CCN(Cc3ccc(Cl)cc3)CC2)cc1` [Example 24, 1-{3-[4-(4-Chlorobenzyl)piperazin-1-yl]propyl}-3-(4-cyanophenyl)urea dihydrochloride monohydrate], the values for the half-inhibitory concentration (IC50) in data set [1], in data set [2] and in data set [3] were 81 µM, 150 µM and 0.008 µM, respectively.

`CCCCCCNC(=O)NCCCN1CCN(CCCc2ccc(Cl)cc2)CC1.Cl.Cl` [Example 25, 1-{3-[4-[3-(4-Chlorophenyl)propyl]piperazin-1-yl]propyl}-3-n-hexylurea dihydrochloride]: the IC50 in data set [1] came to 10 µM; in data set [3], 0.13 µM. In addition, in data set [2], the “Inhibition IC50 (histamine release from rat peritoneal mast cells)” value is reported as “Int”.

With `CCCCCCNC(=O)NCCCN1CCN(Cc2ccc(Cl)c(C(F)(F)F)c2)CC1.Cl.Cl` [Example 26, 1-{3-[4-(3-Trifluoromethyl-4-chlorobenzyl)piperazin-1-yl]propyl}-3-n-hexylurea dihydrochloride], in data set [1], the “Inhibition IC50 (histamine release from human leukocytes (basophils))” value is “Int”. Moreover, the IC50 in data set [3] came out at 0.09 µM.

Regarding `N#Cc1ccc(NC(=O)NCCCN2CCN(CCCc3ccc(Cl)cc3)CC2)cc1` [Example 27, 1-{3-{4-[3-(4-Chlorophenyl)propyl]piperazin-1-yl}propyl}3-(4-cyanophenyl)urea dihydrocyloride monohydrate], the half-maximal inhibitory concentration (IC50) in data set [1] came to 20 µM; in data set [3], 0.11 µM.

On to `C=CCNC(=O)NCCCN1CCN(Cc2ccc(Cl)cc2)CC1` [Example 28, 1-{3-[4-(4-Chlorobenzyl)piperazin-1-yl]propyl}-3-allylurea dihydrochloride], for which the values for the IC50 in data set [1] and in data set [3] were 120 µM and 0.17 µM, respectively.

In the case of `CC(=O)c1ccc(NC(=O)NCCCN2CCN(Cc3ccc(Cl)cc3)CC2)cc1` [Example 29, 1-{3-[4-(4-Chlorobenzyl)piperazin-1-yl]propyl}-3-(4-acetylphenyl)urea dihydrochloride dihydrate], the figures for the half-inhibitory concentration (IC50) in data set [1] and in data set [3] were 115 µM and 0.02 µM, respectively.
